The values that follow come from patent publication US5576324A, “Quinoline derivatives or salt thereof and remedy for cardiac diseases containing the same” (Kowa Co., Ltd., priority 1992, dated 1996).

Test [1] concerns Mouse Arrhythmia Induced by Chloroform (ventricular fibrillation). Put plainly: Action on Mouse Arrhythmia Induced by Chloroform. The note with it: 100 mg/kg given to mice, 20 min before chloroform. The test is classed as in vivo. How it is done:
Action on Mouse Arrhythmia Induced by Chloroform
Test compounds (100 mg/kg) were given to mice, and 20 minutes thereafter, the mice were confined in a pot filled with chloroform. Upon respiratory stoppage, the mice were immediately taken out of the pot, and electrocardiodiagram (lead II) was recorded to obtain ventricular tachycardia, ventricular fibrillation, and period until the cardiac arrest.

Test [2] relates to Blood Flow of a Hind Leg of Anesthetic Dog. Put plainly: Action on the Blood Flow of a Hind Leg of Anesthetic Dog. The test is classed as in vivo. The note with it: Canis lupus familiaris; 100 μg into femoral artery, anesthetized dog; read-out: Increment of Blood Flow. How it is done: Action on the Blood Flow of a Hind Leg of Anesthetic Dog
Adult crossbred dogs were put under anesthesia with pentobarbital-Na (30 mg/kg) by intravenous injection, Heparin was administered to each dog, and an extracorporeal circulation circuit was established in the femoral artery, The blood flow in the hind leg was measured with an electromagnetic hemodromometer placed on the circuit, The samples were administered at a dose of 100 μg into the feromal artery through a rubber tube provided on the circuit.

Test [3] concerns Guinea Pig Atrium (left atrium contraction). Put plainly: Inotropic action on guinea pig atrium samples. As to conditions: Cavia porcellus, 10^-7 M, 1 Hz, 32° C., read-out: Increment of Contraction of the left atrium. How it is done: Inotropic Action and Action Against Time-dependent Action on Guinea Pig Atrium Samples
Guinea pigs were smashed at the head, and were exsanguinated through a cut in the carotid artery. Their hearts were taken out. From each heart, the right and left atria were obtained. The atria were suspended in Krebs-Henzereit solution at 32° C. through which a gas containing 95% oxygen and 5% carbon dioxide was passed. The tensile strength was measured with a strain gauge, and was amplified and recorded. Beats of right atria were counted using a tachometer, and the counts were regarded as the cardiac rate. Electric pulses (1 Hz, 5 msec) having twice the magnitude of the threshold were applied onto the left atria. The samples were given to […] in an accumulative manner at intervals of 5 minutes.
The results are expressed by the increment of contraction of the left atrium when 10^-7 M of a sample was administered.

Counter-ions that a name gives are not always drawn.

Take `CCN(CC)CC1Cc2cc(C)c3c(c2O1)CCC(=O)N3` (stereo not drawn) [Example 77]: the “% Inhibition of ventricular fibrillation” value in test [1] is on record as 100%. On to `Cc1cc2c(c3c1NC(=O)CC3)OC(C)(CN)C2` (stereo not drawn) [Example 21], for which the change in vivo at 0.1 mg in test [2] amounted to 35.7%. On to `NCC1Cc2cc(Cl)c3[nH]c(=O)ccc3c2O1` (stereo not drawn) [Example 120, 2-Aminomethyl-5-chloro-2,3,6,7-tetrahydrofuro[2,3-f]quinoline-7-one.HCl], for which the change in vivo at 0.1 mg in test [2] is 110%. Further, in test [1], the “% Inhibition of ventricular fibrillation” value is on record as 90%. With `CC(=O)OCC1Cc2cc(C)c3[nH]c(=O)ccc3c2O1` (stereo not drawn) [Example 103, 2-Acetoxymethyl-5-methyl-2,3,6,7-tetrahydrofuro-[2,3-f]quinoline-7-one], the change in vivo at 0.1 mg in test [2] worked out at 66.7%. Further, the activation at 0.1 µM in test [3] is 13.1%. Consider `Cc1cc2c(c3ccc(=O)[nH]c13)OC(CN1CCCCC1)C2` (stereo not drawn) [Example 82], for which the change in vivo at 0.1 mg in test [2] turned out to be 31%. Same read-out and setting: the figure for `COc1ccc(CCNCC2Cc3cc(C)c4[nH]c(=O)ccc4c3O2)cc1OC` (stereo not drawn) [Example 99] is 97%. `NCC1Cc2cc(Cl)c3c(c2O1)CCC(=O)N3` (stereo not drawn) [Example 121]: the “% Inhibition of ventricular fibrillation” value in test [1] is on record as 100%. Regarding `Cc1cc2c(c3c1NC(=O)CC3)OC(CNS(C)(=O)=O)C2` (stereo not drawn) [Example 114], the activation at 0.1 µM in test [3] was 18.8%. Consider `CCCCNCC1Cc2cc(C)c3[nH]c(=O)ccc3c2O1` (stereo not drawn) [Example 94, 2-(n-butylamino)methyl-5-methyl-2,3,6,7-tetrahydrofuro[2,3-f]quinoline-7-one.HCl], for which, in test [1], the “% Inhibition of ventricular fibrillation” value was 100%.

With `Cc1cc2c(c3ccc(=O)[nH]c13)OC(CI)C2` (stereo not drawn) [Example 106, 2-Iodomethyl-5-methyl-2,3,6,7-tetrahydrofuro-[2,3-f]quinoline-7-one], the change in vivo at 0.1 mg in test [2] stood at 39.5%. Moreover, the activation at 0.1 µM in test [3] is 46.8%.

For `Cc1cc2c(c3ccc(=O)[nH]c13)OC(C)(CN)C2(C)C` (stereo not drawn) [Example 22], the “% Inhibition of ventricular fibrillation” value in test [1] is given as 90%.

For `Cc1cc2c(c3c1NC(=O)CC3)OC(CF)C2` (stereo not drawn) [Example 108], in test [2], the change in vivo at 0.1 mg was 54.8%. For `COCC1Cc2cc(C)c3[nH]c(=O)ccc3c2O1` (stereo not drawn) [Example 109], the activation at 0.1 µM in test [3] amounted to 20.3%. In the case of `Cc1cc2c(c3ccc(=O)[nH]c13)OC(CF)C2` (stereo not drawn) [Example 107, 2-Fluoromethyl-5-methyl-2,3,6,7-tetrahydrofuro-[2,3-f]quinoline-7-one], in test [2], the change in vivo at 0.1 mg was 54.1%. Take `Cc1cc2c(c3ccc(=O)[nH]c13)OC(CN)C2C` (stereo not drawn) [Example 13, (2RS, 3SR)-2-Aminomethyl-3,5-dimethyl-2,3,6,7-tetrahydrofuro[2,3-f]quinoline-7-one.HCl]: the activation at 0.1 µM in test [3] was determined as 31.8%. Turning to `NCC1Cc2c(ccc3[nH]c(=O)ccc23)O1` (stereo not drawn) [Example 50, 2-Aminomethyl-1,2,6,7-tetrahydrofuro[3,2-f]quinoline-7-one], in test [2], the change in vivo at 0.1 mg stood at 26.7%. In addition, the activation at 0.1 µM in test [3] is 11.1%. Take `Cc1cc2c(c3ccc(=O)[nH]c13)OC(C)(CN)C2` (stereo not drawn) [Example 20]: in test [1], the “% Inhibition of ventricular fibrillation” value came out at 100%.
